In PubChem BioAssay AID252 (DTP/NCI, 2004) one finds T/C data, which are given here for twelve compounds.

Where “and” joins values, the source holds several entries; their conditions need not be identical. Equal values may be shown once. Toxic doses and inconclusive results are not listed.

For this experiment, the system named is BDF1 mice, intracerebral L1210 leukemia, survival T/C. In words: NCI In Vivo Anticancer Drug Screen. Data for tumor model L1210 Leukemia (intracerebral) in B6D2F1 (BDF1) mice. To be noted: higher = longer survival. In outline:
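Transplantable tumour-bearing mice, compound-treated vs vehicle controls; read-out survival, reported as T/C ratio.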

Setting [1] is: endpoint: mean survival time, dose: 250.0 mg/kg/injection, schedule: Q01DX001 (ip), vehicle: carboxymethylcellulose (CMC).
[2] abbreviates: endpoint: mean survival time, dose: 500.0 mg/kg/injection, schedule: Q01DX001 (ip), vehicle: carboxymethylcellulose (CMC).
[3] abbreviates: endpoint: mean survival time, dose: 1000.0 mg/kg/injection, schedule: Q01DX001 (ip), vehicle: carboxymethylcellulose (CMC).

With `CCn1cnc2c(SC3CCCC3)ncnc21`, the T/C was 118 % of control (endpoint: mean survival time, dose: 30.0 mg/kg/injection, schedule: Q01DX015 (ip), vehicle: carboxymethylcellulose (CMC)); 124 % of control (endpoint: mean survival time, dose: 62.0 mg/kg/injection, schedule: Q01DX015 (ip), vehicle: carboxymethylcellulose (CMC)); 118 % of control (endpoint: mean survival time, dose: 62.0 mg/kg/injection, schedule: Q01DX Z (ip), vehicle: carboxymethylcellulose (CMC)); 106 % of control (endpoint: mean survival time, dose: 125.0 mg/kg/injection, schedule: Q01DX001 (ip), vehicle: carboxymethylcellulose (CMC)); 123 % of control (endpoint: mean survival time, dose: 125.0 mg/kg/injection, schedule: Q01DX015 (ip), vehicle: carboxymethylcellulose (CMC)); 103 % of control (endpoint: mean survival time, dose: 200.0 mg/kg/injection, schedule: Q01DX009 (ip), vehicle: carboxymethylcellulose (CMC)). In addition, the T/C is 112 % of control under setting [1]; 164 % of control (endpoint: mean survival time, dose: 250.0 mg/kg/injection, schedule: Q01DX Z (ip), vehicle: carboxymethylcellulose (CMC)); 169 % of control (endpoint: mean survival time, dose: 375.0 mg/kg/injection, schedule: Q01DX015 (ip), vehicle: carboxymethylcellulose (CMC)); 200 % of control (endpoint: mean survival time, dose: 400.0 mg/kg/injection, schedule: Q01DX009 (ip), vehicle: carboxymethylcellulose (CMC)); 108 % of control under setting [2]; 98 % of control (endpoint: mean survival time, dose: 500.0 mg/kg/injection, schedule: Q01DX Z (ip), vehicle: carboxymethylcellulose (CMC)). The T/C under setting [3] was 120 % of control.

Take `CN(Cc1cnc2nc(N)nc(N)c2n1)c1ccc(C(=O)N[C@@H](CCC(=O)O)C(=O)O)cc1`: the T/C runs as follows: (endpoint: mean survival time, dose: 0.6 mg/kg/injection, schedule: Q01DX009 (ip), vehicle: saline) 158 % of control; (endpoint: mean survival time, dose: 1.25 mg/kg/injection, schedule: Q01DX009 (ip), vehicle: other) 150 % of control; (endpoint: mean survival time, dose: 1.25 mg/kg/injection, schedule: Q01DX009 (ip), vehicle: saline) 168 % of control; (endpoint: mean survival time, dose: 2.5 mg/kg/injection, schedule: Q01DX009 (ip), vehicle: saline) 112 % of control; (endpoint: mean survival time, dose: 3.0 mg/kg/injection, schedule: Q01DX009 (ip), vehicle: sodium bicarbonate) 108 % of control; (endpoint: mean survival time, dose: 5.0 mg/kg/injection, schedule: Q01DX009 (ip), vehicle: saline) 95 % of control. Also, the T/C by setting is: (endpoint: mean survival time, dose: 5.0 mg/kg/injection, schedule: Q01DX009 (ip), vehicle: sodium bicarbonate) 94 % of control; (endpoint: mean survival time, dose: 8.0 mg/kg/injection, schedule: Q01DX001 (ip), vehicle: sodium bicarbonate) 111 % of control; (endpoint: mean survival time, dose: 14.0 mg/kg/injection, schedule: Q04DX003 (ip), vehicle: sodium bicarbonate) 113 % of control; (endpoint: mean survival time, dose: 16.0 mg/kg/injection, schedule: Q01DX001 (ip), vehicle: sodium bicarbonate) 114 % of control; (endpoint: mean survival time, dose: 19.0 mg/kg/injection, schedule: Q01DX001 (ip), vehicle: water) 108 % of control; (endpoint: mean survival time, dose: 23.0 mg/kg/injection, schedule: Q04DX003 (ip), vehicle: sodium bicarbonate) 112 % of control. Moreover, the T/C (endpoint: mean survival time, dose: 29.0 mg/kg/injection, schedule: Q01DX001 (ip), vehicle: water) is 111 % of control; the T/C (endpoint: mean survival time, dose: 32.0 mg/kg/injection, schedule: Q01DX001 (ip), vehicle: sodium bicarbonate) is 117 % of control; the T/C (endpoint: mean survival time, dose: 39.0 mg/kg/injection, schedule: Q04DX003 (ip), vehicle: sodium bicarbonate) was 115 % of control; the T/C (endpoint: mean survival time, dose: 43.0 mg/kg/injection, schedule: Q01DX001 (ip), vehicle: water) is 113 % of control; the T/C (endpoint: mean survival time, dose: 64.0 mg/kg/injection, schedule: Q01DX001 (ip), vehicle: sodium bicarbonate) was 121 % of control; the T/C (endpoint: mean survival time, dose: 65.0 mg/kg/injection, schedule: Q04DX003 (ip), vehicle: sodium bicarbonate) was 100 % of control. The T/C is, setting by setting: (endpoint: mean survival time, dose: 128.0 mg/kg/injection, schedule: Q01DX001 (ip), vehicle: sodium bicarbonate) 109 % of control; (endpoint: median survival time, dose: 0.5 mg/kg/injection, schedule: Q01DX009 (ip), vehicle: sodium bicarbonate) 102 % of control; (endpoint: median survival time, dose: 1.0 mg/kg/injection, schedule: Q01DX009 (ip), vehicle: sodium bicarbonate) 113 % of control.

Consider `CN(N=O)C(=O)NC(N)=O`, for which the T/C was 102 % of control (endpoint: mean survival time, dose: 33.0 mg/kg/injection, schedule: Q01DX001 (ip), vehicle: carboxymethylcellulose (CMC)); 105 % of control (endpoint: mean survival time, dose: 50.0 mg/kg/injection, schedule: Q01DX001 (ip), vehicle: carboxymethylcellulose (CMC)); 114 % of control (endpoint: mean survival time, dose: 75.0 mg/kg/injection, schedule: Q01DX001 (ip), vehicle: carboxymethylcellulose (CMC)); 115 % of control (endpoint: mean survival time, dose: 112.0 mg/kg/injection, schedule: Q01DX001 (ip), vehicle: carboxymethylcellulose (CMC)).

In the case of `O=NN(CCCl)C(=O)NC1CSCSC1`, the T/C is, setting by setting: (endpoint: mean survival time, dose: 2.0 mg/kg/injection, schedule: Q01DX001 (ip), vehicle: other) 103 % of control and 98 % of control; (endpoint: mean survival time, dose: 15.0 mg/kg/injection, schedule: Q01DX001 (ip), vehicle: other) 153 % of control and 196 % of control; (endpoint: mean survival time, dose: 22.0 mg/kg/injection, schedule: Q01DX001 (ip), vehicle: other) 360 % of control and 379 % of control; (endpoint: mean survival time, dose: 50.0 mg/kg/injection, schedule: Q01DX001 (ip), vehicle: other) 89 % of control.

Regarding `CC1CCC(NC(=O)N(CCF)N=O)CC1` (centres undefined), the T/C by setting is: (endpoint: mean survival time, dose: 20.0 mg/kg/injection, schedule: Q01DX001 (ip), vehicle: other) 117 % of control; (endpoint: mean survival time, dose: 44.0 mg/kg/injection, schedule: Q01DX001 (ip), vehicle: other) 212 % of control; (endpoint: mean survival time, dose: 66.0 mg/kg/injection, schedule: Q01DX001 (ip), vehicle: other) 341 % of control.

With `CC(=O)OC1CCC(NC(=O)N(CCF)N=O)CC1` (centres undefined), the T/C reads like this: (endpoint: mean survival time, dose: 24.0 mg/kg/injection, schedule: Q01DX001 (ip), vehicle: other) 276 % of control; (endpoint: mean survival time, dose: 32.0 mg/kg/injection, schedule: Q01DX001 (oral), vehicle: other) 516 % of control; (endpoint: mean survival time, dose: 36.0 mg/kg/injection, schedule: Q01DX001 (ip), vehicle: other) 509 % of control.

As for `O=C1C=CN(C2OC(CO)C(O)C2O)C(=O)C1` (centres undefined), the T/C (endpoint: median survival time, dose: 200.0 mg/kg/injection, schedule: Q01DX009 (ip), vehicle: saline) is 150 % of control.

With `CCN(N=O)C(N)=O`, the T/C is 97 % of control (endpoint: mean survival time, dose: 67.0 mg/kg/injection, schedule: Q01DX001 (ip), vehicle: carboxymethylcellulose (CMC)); 105 % of control (endpoint: mean survival time, dose: 100.0 mg/kg/injection, schedule: Q01DX001 (ip), vehicle: carboxymethylcellulose (CMC)); 104 % of control (endpoint: mean survival time, dose: 150.0 mg/kg/injection, schedule: Q01DX001 (ip), vehicle: carboxymethylcellulose (CMC)).

As for `O=c1n(CC2CO2)c(=O)n(CC2CO2)c(=O)n1CC1CO1` (centres undefined), the T/C runs as follows: (endpoint: median survival time, dose: 40.0 mg/kg/injection, schedule: Q01DX009 (ip), vehicle: saline) 151 % of control; (endpoint: median survival time, dose: 70.0 mg/kg/injection, schedule: Q01DX009 (ip), vehicle: saline) 121 % of control; (endpoint: median survival time, dose: 80.0 mg/kg/injection, schedule: Q01DX009 (ip), vehicle: saline) 121 % of control; (endpoint: median survival time, dose: 90.0 mg/kg/injection, schedule: Q01DX009 (ip), vehicle: saline) 122 % of control.

Turning to `CCCCCCCCCCCCCCCC(=O)Nc1ccn(C2OC(CO)C(O)C2O)c(=O)n1` (centres undefined), the T/C by setting is: (endpoint: median survival time, dose: 12.5 mg/kg/injection, schedule: Q01DX009 (ip), vehicle: distilled water + Tween-80 + alcohol) 214 % of control; (endpoint: median survival time, dose: 25.0 mg/kg/injection, schedule: Q01DX009 (ip), vehicle: distilled water + Tween-80 + alcohol) 269 % of control.

As to `CC(Cl)CNC(=O)N(CC(C)Cl)N=O` (centres undefined), the T/C is 107 % of control under setting [1], 112 % of control under setting [2] and 204 % of control under setting [3].

Take `CCCCC(=O)N(c1ccc(Nc2c3ccccc3nc3cc([N+](=O)[O-])ccc23)cc1)S(C)(=O)=O`: the T/C runs as follows: (endpoint: mean survival time, dose: 3.18 mg/kg/injection, schedule: Q01DX009 (ip), vehicle: saline) 96 % of control; (endpoint: mean survival time, dose: 3.18 mg/kg/injection, schedule: Q01DX009 (sc), vehicle: saline) 104 % of control; (endpoint: mean survival time, dose: 6.25 mg/kg/injection, schedule: Q01DX009 (ip), vehicle: saline) 99 % of control; (endpoint: mean survival time, dose: 6.25 mg/kg/injection, schedule: Q01DX009 (sc), vehicle: saline) 105 % of control; (endpoint: mean survival time, dose: 12.5 mg/kg/injection, schedule: Q01DX009 (ip), vehicle: saline) 101 % of control; (endpoint: mean survival time, dose: 12.5 mg/kg/injection, schedule: Q01DX009 (sc), vehicle: saline) 103 % of control. The T/C is 97 % of control (endpoint: mean survival time, dose: 25.0 mg/kg/injection, schedule: Q01DX009 (ip), vehicle: saline) and 102 % of control (endpoint: mean survival time, dose: 25.0 mg/kg/injection, schedule: Q01DX009 (sc), vehicle: saline).
